Like-named read-outs stand apart in the source and are kept apart here.
Columns and labels:
[1] = system: Sacchromyces cerevisiae strain J47D; assay: In vitro cell proliferation assay (yeast proliferation); format: cell-based; set-up: key to Inhibition of yeast proliferation: (+) Complete inhibition (no proliferation); (−) no inhibition (normal proliferation); (+/−) partial inhibition; (i) compound insoluble
Protocol: (§1) Sacchromyces cerevisiae strain J47D in log phase growth, was plated in 96 well dishes at 1.5×10^4 cells/well in YEPD media. Magmas inhibitors were diluted in DMSO and added at various concentrations (range 0 mM to 1 mM) to each well in triplicate at a final DMSC concentration of 1%. Samples were cultured at 30° C. in a Bioscreen C MBR incubator (Growth Curves USA, Piscataway, N.J.) and optical density (OD) readings were measured every 30 minutes for the indicated time in the plots. Cell proliferation data was analyzed and plotted using Microsoft Excel. Standard deviations were smaller than 2% of the mean OD value (n=3), and each experiment was performed at least two independent times.
Reduced Magmas function caused by siRNA knockdown or by mutations in Magmas causes growth inhibition and cell cycle arrest. To assay whether the compounds were active, their ability to inhibit yeast proliferation was measured. The results obtained in yeast are equivalent to those found in mammalian cells in part because the human homolog is fully functional in yeast and the target region is identical across all eukaryotic species.

[2] = system: HUVEC; assay: Viability of human cells, trypan blue dye exclusion; format: cell-based; set-up: key to viability of human cells: (+) Viable; (−) dead; (+/−) partial viability; conditions: for viability of human cells: HUVEC, 48 hrs
Protocol: (§2) Cell lines derived from human hematological malignancies and glioblastoma multiforme, and human umbilical vascular endothelial cells (HUVEC) were cultured in standard media with the concentrations of 9 indicated in Table 3. Viable cells were scored by trypan blue dye exclusion at 48 hrs. The HUVEC population consisted of a pool of primary cells isolated from the blood vessels of 4 umbilical cords. Each cell type was tested in duplicate in at least three independent experiments.

[3] = system: Toledo; assay: as above; format: cell-based; set-up: key: (+) Viable; (−) dead; (+/−) partial viability; conditions: 48 hrs
Protocol: as §2

[4] = system: Pfeiffer; assay: as above; format: cell-based; set-up: key: (+) Viable; (−) dead; (+/−) partial viability; conditions: 48 hrs
Protocol: as §2

[5] = system: U87; assay: as above; format: cell-based; set-up: key: (+) Viable; (−) dead; (+/−) partial viability; conditions: 48 hrs
Protocol: as §2

[6] = system: Karpas; assay: as above; format: cell-based; set-up: key: (+) Viable; (−) dead; (+/−) partial viability; conditions: 48 hrs
Protocol: as §2

[7] = system: U118; assay: as above; format: cell-based; set-up: key: (+) Viable; (−) dead; (+/−) partial viability; conditions: 48 hrs
Protocol: as §2

[8] = system: K562; assay: as above; format: cell-based; set-up: key: (+) Viable; (−) dead; (+/−) partial viability; conditions: 48 hrs
Protocol: as §2

[9] = system: yeast strains containing several different Magmas mutations expressed on a plasmid; assay: Yeast proliferation assay with Magmas mutations and over-expression; format: cell-based
Text: Mutations in Magmas were introduced by error prone PCR and the changes were identified by sequencing. Only genes with a single amino acid change were further analyzed. The genes encoding the mutations were spliced into plasmid pRS315 containing the selectable […] marker (leu) and transfected into yeast where the wt genomic copy was replaced by a his cassette and the essential Magmas activity was maintained by wt Magmas in the plasmid pRS316 (ura). The plasmid containing the wt Magmas gene was lost by selection in media containing FOA, resulting in yeast strains only expressing the mutant gene. Total yeast protein from each of the strains was separated by SDS-PAGE, and transferred to nitrocellulose membranes. The membranes were sequentially incubated with rabbit anti-Magmas antibody, HRP conjugated goat anti-rabbit antibody and chemiluminescence reagent. The signal was captured with a Fujifilm LAS-3000 Imager and the data analyzed with ImageGage software.
as §1
All of these stains express similar levels of Magmas protein, which is approximately 4 fold higher than the haploid control (Wt genomic).

[10] = system: HeLa cells; assay: Mitotracker Red mitochondrial activity; format: cell-based; conditions: 6 μM for 12 hours
Protocol: HeLa cells were treated with 6 μM Compound 9 for 12 hours. The cells were then incubated with Mitotracker Red (100 nM) for 15 minutes, washed, fixed with formaldehyde, and examined by fluorescent microscopy. […] This confirms that the invention affects mitochondrial activity.

[11] = biological target: T1, purified yeast Magmas (Saccharomyces cerevisiae, UniProt P42949); assay: Binding to Magmas by fluorescence emission spectrum (tryptophan)
T1 sequence (P42949 1-149): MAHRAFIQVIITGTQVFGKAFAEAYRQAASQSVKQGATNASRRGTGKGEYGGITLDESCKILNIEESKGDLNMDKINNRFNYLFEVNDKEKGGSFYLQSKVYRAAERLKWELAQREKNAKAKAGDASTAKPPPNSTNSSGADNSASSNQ
Protocol: (§3) The binding of 9 to both purified yeast and mouse Magmas was evaluated. The fluorescence spectrum of tryptophan was measured for the binding to the yeast target and the fluorescence spectrum of tyrosine was measured for the binding to the murine target. The spectral shift observed at varying concentrations of 9 was used to determine the binding constant (FIG. 3).

[12] = biological target: T2, purified mouse Magmas (Mus musculus, UniProt Q9CQV1); assay: Binding to Magmas by fluorescence emission spectrum (tyrosine); conditions: murine Magmas, FIG. 3B; read-out: calculated Kd
T2 sequence (Q9CQV1 1-125): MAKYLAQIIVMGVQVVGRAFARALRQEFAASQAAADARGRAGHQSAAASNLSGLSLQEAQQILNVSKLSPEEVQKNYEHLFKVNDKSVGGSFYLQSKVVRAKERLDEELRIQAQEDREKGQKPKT
Protocol: as §3

SMILES: c1ccc(C2=Nc3ccccc3OC2)cc1 [Compound 1]
- Effect on yeast proliferation ([1]; doses up to and including 6 μM): not effective

SMILES: O=[N+]([O-])c1ccc2c(c1)N=C(c1ccccc1)CO2 [Compound 2]
- Effect on yeast proliferation ([1]; doses up to and including 6 μM): not effective

SMILES: Clc1ccc2c(c1)N=C(c1ccccc1)CO2 [Compound 3]
- Effect on yeast proliferation ([1]; doses up to and including 6 μM): not effective

SMILES: Clc1ccc2c(c1)C=CC(c1ccccc1)O2 (stereo not drawn) [Compound 4]
- Inhibition of yeast proliferation ([1]; 1 μM): −
- Inhibition of yeast proliferation ([1]; 10 μM): −
- Inhibition of yeast proliferation ([1]; 100 μM): +
- Inhibition of yeast proliferation ([1]; 1 mM): i

SMILES: O=[N+]([O-])c1ccc2c(c1)C=CC(c1ccccc1)O2 (stereo not drawn) [Compound 5]
- Inhibition of yeast proliferation ([1]; 1 μM): −
- Inhibition of yeast proliferation ([1]; 10 μM): −
- Inhibition of yeast proliferation ([1]; 100 μM): −
- Inhibition of yeast proliferation ([1]; 1 mM): −
- Effect on yeast proliferation ([1]; all concentrations): inactive

SMILES: Brc1ccc2c(c1)C=CC(c1ccccc1)O2 (stereo not drawn) [Compound 6]
- Inhibition of yeast proliferation ([1]; 1 μM): −
- Effect on yeast proliferation ([1]; 10 μM): partially inhibitory
- Inhibition of yeast proliferation ([1]; 10 μM): +/−
- Inhibition of yeast proliferation ([1]; 100 μM): +
- Inhibition of yeast proliferation ([1]; 1 mM): +

SMILES: Oc1cccc2c1OC(c1ccccc1)C=C2 (stereo not drawn) [Compound 7]
- Effect on yeast proliferation ([1]; doses up to and including 6 μM): not effective

SMILES: CCCCCCCCC1C=Cc2cc([N+](=O)[O-])ccc2O1 (stereo not drawn) [Compound 8]
- Inhibition of yeast proliferation ([1]; 1 μM): −
- Inhibition of yeast proliferation ([1]; 10 μM): −
- Inhibition of yeast proliferation ([1]; 100 μM): +
- Inhibition of yeast proliferation ([1]; 1 mM): i

SMILES: CCC1=C(C)/C(=C/c2ccc(C(=O)NC(=N)N)cc2)CCC1(C)C [Compound 9]
- viability of human cells ([2]; 2 um): +
- viability of human cells ([2]; 4 um): +
- viability of human cells ([2]; 6 um): +
- viability of human cells ([2]; 8 um): +
- viability of human cells ([2]; 12 um): +
- viability of human cells ([2]; 16 um): +
- viability of human cells ([2]; 20 um): +/−
- viability of human cells ([2]; 24 um): −
- sensitivity of tumor cell lines relative to normal primary cells (HUVEC) ([2]; tumor cell lines vs HUVEC, viability at 48 hrs): 4 to 5 fold
- viability of human cells ([3]; 2 um): +/−
- viability of human cells ([3]; 4 um): +/−
- viability of human cells ([3]; 6 um): −
- viability of human cells ([3]; 8 um): −
- viability of human cells ([3]; 12 um): −
- viability of human cells ([3]; 16 um): −
- viability of human cells ([3]; 20 um): −
- viability of human cells ([3]; 24 um): −
- viability of human cells ([4]; 2 um): +/−
- viability of human cells ([4]; 4 um): +/−
- viability of human cells ([4]; 6 um): −
- viability of human cells ([4]; 8 um): −
- viability of human cells ([4]; 12 um): −
- viability of human cells ([4]; 16 um): −
- viability of human cells ([4]; 20 um): −
- viability of human cells ([4]; 24 um): −
- viability of human cells ([5]; U87, 2 um): +/−
- viability of human cells ([5]; U87, 4 um): +/−
- viability of human cells ([5]; U87, 6 um): −
- viability of human cells ([5]; U87, 8 um): −
- viability of human cells ([5]; U87, 12 um): −
- viability of human cells ([5]; U87, 16 um): −
- viability of human cells ([5]; U87, 20 um): −
- viability of human cells ([5]; U87, 24 um): −
- viability of human cells ([6]; 2 um): +/−
- viability of human cells ([6]; 4 um): +/−
- viability of human cells ([6]; 6 um): +/−
- viability of human cells ([6]; 8 um): −
- viability of human cells ([6]; 12 um): −
- viability of human cells ([6]; 16 um): −
- viability of human cells ([6]; 20 um): −
- viability of human cells ([6]; 24 um): −
- viability of human cells ([7]; U118, 2 um): +/−
- viability of human cells ([7]; U118, 4 um): −
- viability of human cells ([7]; U118, 6 um): −
- viability of human cells ([7]; U118, 8 um): −
- viability of human cells ([7]; U118, 12 um): −
- viability of human cells ([7]; U118, 16 um): −
- viability of human cells ([7]; U118, 20 um): −
- viability of human cells ([7]; U118, 24 um): −
- viability of human cells ([8]; K562, 2 um): +/−
- viability of human cells ([8]; K562, 4 um): +/−
- viability of human cells ([8]; K562, 6 um): −
- viability of human cells ([8]; K562, 8 um): −
- viability of human cells ([8]; K562, 12 um): −
- viability of human cells ([8]; K562, 16 um): −
- viability of human cells ([8]; K562, 20 um): −
- viability of human cells ([8]; K562, 24 um): −
- Sensitivity of yeast to Compound 9 ([9]; Magmas A104S): increased sensitivity
- Sensitivity of yeast to Compound 9 ([9]; Magmas N84T vs Wt plasmid): increased resistance
- Sensitivity of yeast to Compound 9 ([9]; over-expression of Magmas: Wt plasmid vs Wt genomic): reduces sensitivity
- Mitotracker Red intensity [10]: reduced
- Inhibition of yeast proliferation ([1]; 1 μM): −
- Effect on yeast proliferation ([1]; 4 μM): significant and reproducible inhibition
- lengthening of the time to half maximal growth ([1]; 4 μM): 1.8 times
- Effect on yeast proliferation ([1]; 10 μM): fully inhibited growth
- Inhibition of yeast proliferation ([1]; 10 μM): +
- Inhibition of yeast proliferation ([1]; 100 μM): +
- Inhibition of yeast proliferation ([1]; 1 mM): +
- Kd ([11]; yeast Magmas, FIG. 3A, read-out: calculated Kd): 33 µM
- Kd ([11]; yeast target, read-out: binding constant): 34 ± 2 µM
- Kd [12]: 36 µM
